Columns and labels:
C57BL/6 mice = experiment: MK801 induced abnormally persistent latent inhibition; format: in vivo; settings: 4 tone-shock pairings to produce low LI
Procedure: C57BL/6 mice will be used to investigate latent inhibition (LI) conditioned emotional response cessation of drinking model in mice as described in, e.g., Bay-Richter, et al., Enhanced Latent Inhibition in Dopamine Receptor-Deficient Mice is Sex-Specific for the D1 but not D2 Receptor Subtype: Implications for Antipsychotic Drug Action, Int. J. Neuropsychopharmacol. […] On Day 1 to Day 6, animals will undergo lick training where mice will have access to water in a chamber for 15 minutes and the number of licks per animal will be recorded. […] One group will receive 20 presentations [determined from prior experiments to produce reduced LI in controls] of a 5 second 85 dB tone with a 15 second inter-stimulus interval (pre-exposed group, PE); a control group of non-pre-exposed (NPE) mice will be placed in a testing chamber with access to water withdrawn for an identical period of time but will not receive a tone pre-exposure. […] Number of licks for each animal will be recorded and time taken to complete 80-90 licks (A) and 90-100 licks (B) recorded. […] A suppression ratio (SR) will be calculated according to the formula A/(A+B) yielding a scale of […]. […]
In a sixth series of experiments, the ability of the combined Tropisetron and Varenicline treatment to reverse the MK801 induced abnormally persistent latent inhibition effect will be assessed. […]

[1] = cited from earlier work

Q: For C[C@]12N[C@H](Cc3ccccc31)c1ccccc12 [MK801], which “effect of MK801 on latent inhibition” value (C57BL/6 mice) is on record?
A: The value was “produce abnormally persistent latent inhibition”.

Q: Which “absorption from the gastrointestinal tract” value ([1]; background statement) does the source give for CN1[C@@H]2CC[C@H]1C[C@@H](OC(=O)c1c[nH]c3ccccc13)C2 [Tropisetron] here?
A: Its value is “almost completely absorbed”.

Q: What about the “off-target gastrointestinal side effects” value ([1]; chronic administration, due to 5-HT3 receptor inhibitory activity) of the same compound?
A: Its value is “a reduction in gut transit and constipation”.

Q: What about the “cognitive effects in patients with schizophrenia” value ([1]; patients with schizophrenia, background statement) of the same compound?
A: Its value is “some pro-cognitive effects”.
